# In patent US12098144B2, “Piperazine indazole glucocorticoid receptor antagonists” (Corcept Therapeutics Incorporated, priority 2021, dated 2024):
# Target: T1, glucocorticoid receptor (Homo sapiens, UniProt P04150)
# T1 construct: endogenous in cells; ATCC cat
# T1 sequence (P04150 1-777): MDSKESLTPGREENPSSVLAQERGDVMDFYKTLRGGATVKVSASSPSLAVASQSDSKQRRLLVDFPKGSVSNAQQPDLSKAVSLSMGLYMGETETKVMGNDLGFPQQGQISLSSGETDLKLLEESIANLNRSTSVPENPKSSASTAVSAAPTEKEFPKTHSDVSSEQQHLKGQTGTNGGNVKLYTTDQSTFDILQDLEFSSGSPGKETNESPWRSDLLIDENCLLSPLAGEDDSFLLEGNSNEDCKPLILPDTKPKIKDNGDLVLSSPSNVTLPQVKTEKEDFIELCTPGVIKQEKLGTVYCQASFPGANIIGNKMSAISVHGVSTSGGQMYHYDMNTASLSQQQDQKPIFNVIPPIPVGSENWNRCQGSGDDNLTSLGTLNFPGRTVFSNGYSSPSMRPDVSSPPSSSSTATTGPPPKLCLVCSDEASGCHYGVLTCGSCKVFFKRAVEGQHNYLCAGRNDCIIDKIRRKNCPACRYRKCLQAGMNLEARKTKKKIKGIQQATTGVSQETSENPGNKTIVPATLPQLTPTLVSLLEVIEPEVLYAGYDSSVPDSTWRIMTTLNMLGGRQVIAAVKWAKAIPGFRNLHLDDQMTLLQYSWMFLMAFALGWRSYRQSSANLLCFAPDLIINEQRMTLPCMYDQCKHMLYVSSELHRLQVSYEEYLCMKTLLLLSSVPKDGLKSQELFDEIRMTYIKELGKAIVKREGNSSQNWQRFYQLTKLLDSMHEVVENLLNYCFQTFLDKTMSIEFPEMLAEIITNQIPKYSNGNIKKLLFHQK
# Test: Hep G2 TAT Ki: inhibition of dexamethasone-induced TAT in HepG2 cells (96 well)
# Assay type: cell-based
# Conditions: challenge of 100 nM dexamethasone, IC50 converted to Ki by Cheng and Prusoff equation
# Procedure, shortened: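 Cells lysed 15 min at 4 °C; TAT enzyme reaction 2 h at 37 °C, stopped with KOH, 30 min further at 37 °C. Inhibition fitted to 4-parameter logistic.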
row,Ki [nM],SMILES
1,140,"Cc1cc2c(cnn2-c2ccc(F)cc2)cc1C1CN(S(=O)(=O)c2cnn(C)n2)CCN1C(C)C (centres unmarked) [Example 19, 1-(4-fluorophenyl)-5-(1-isopropyl-4-((2-methyl-2H-1,2,3-triazol-4-yl)sulfonyl)piperazin-2-yl)-6-methyl-1H-indazole]"
2,28,"Cc1cc2c(cnn2-c2ccc(F)cc2)cc1C1CN(S(=O)(=O)c2cn(C)nn2)CCN1CC(C)C (single isomer, unassigned) [Example 101, 1-(4-fluorophenyl)-5-(1-isobutyl-4-((1-methyl-1H-1,2,3-triazol-4-yl)sulfonyl)piperazin-2-yl)-6-methyl-1H-indazole]"
3,29,"Cc1cc2c(cnn2-c2ccc(F)cc2)cc1C1CN(S(=O)(=O)c2cnn(C)n2)CCN1CC1(F)CC1 (single isomer, unassigned) [Example 79, 5-(1-((1-fluorocyclopropyl)methyl)-4-((2-methyl-2H-1,2,3-triazol-4-yl)sulfonyl)piperazin-2-yl)-1-(4-fluorophenyl)-6-methyl-1H-indazole]"
4,25,"Cc1cc2c(cnn2-c2ccc(F)cc2)cc1C1CN(S(=O)(=O)C2CCC2)CCN1CC(C)C (single isomer, unassigned) [Example 116, 5-(4-(cyclobutylsulfonyl)-1-isobutylpiperazin-2-yl)-1-(4-fluorophenyl)-6-methyl-1H-indazole]"
5,36,"Cc1cc2c(cnn2-c2ccc(F)cc2)cc1C1CN(S(=O)(=O)c2cnccc2C)CCN1CC(C)C (single isomer, unassigned) [Example 112, 1-(4-fluorophenyl)-5-(1-isobutyl-4-((4-methylpyridin-3-yl)sulfonyl)piperazin-2-yl)-6-methyl-1H-indazole]"
6,20,"Cc1cc2c(cnn2-c2ccc(F)cc2)cc1C1CN(S(=O)(=O)c2cnn(C)n2)CCN1CC(C)C (single isomer, unassigned) [Example 11, 1-(4-fluorophenyl)-5-(1-isobutyl-4-((2-methyl-2H-1,2,3-triazol-4-yl)sulfonyl)piperazin-2-yl)-6-methyl-1H-indazole]"
7,14,"Cc1cc2c(cnn2-c2ccc(F)cc2)cc1C1CN(S(=O)(=O)c2cnn(C)c2)CCN1CCC(F)(F)F (single isomer, unassigned) [Example 128, 1-(4-fluorophenyl)-6-methyl-5-(4-((1-methyl-1H-pyrazol-4-yl)sulfonyl)-1-(3,3,3-trifluoropropyl)piperazin-2-yl)-1H-indazole]"
8,140,"Cc1cc2c(cnn2-c2ccc(F)cc2)cc1C1CN(S(=O)(=O)c2cnn(C)n2)CCN1CC1CC(F)(F)C1 (single isomer, unassigned) [Example 75, 5-(1-((3,3-difluorocyclobutyl)methyl)-4-((2-methyl-2H-1,2,3-triazol-4-yl)sulfonyl)piperazin-2-yl)-1-(4-fluorophenyl)-6-methyl-1H-indazole]"
9,90,"Cc1cc2c(cnn2-c2ccc(F)cc2)cc1C1CN(S(C)(=O)=O)CCN1CC1CCOCC1 (single isomer, unassigned) [Example 30, 1-(4-fluorophenyl)-6-methyl-5-(4-(methylsulfonyl)-1-((tetrahydro-2H-pyran-4-yl)methyl)piperazin-2-yl)-1H-indazole]"
10,41,"Cc1cc2c(cnn2-c2ccc(F)cc2)cc1C1CN(S(=O)(=O)c2cnn(C)n2)CCN1CC(C)C (centres unmarked) [Example 4, 1-(4-fluorophenyl)-5-(1-isobutyl-4-((2-methyl-2H-1,2,3-triazol-4-yl)sulfonyl)piperazin-2-yl)-6-methyl-1H-indazole]"
11,28,"Cc1cc2c(cnn2-c2ccc(F)cc2)cc1C1CN(S(=O)(=O)CC2CC2)CCN1CC(C)C (single isomer, unassigned) [Example 51, 5-(4-((cyclopropylmethyl)sulfonyl)-1-isobutylpiperazin-2-yl)-1-(4-fluorophenyl)-6-methyl-1H-indazole]"
12,100,"Cc1cc2c(cnn2-c2ccc(F)cc2)cc1C1CN(S(=O)(=O)c2cnn(CC(F)(F)F)n2)CCN1CC(C)C (single isomer, unassigned) [Example 95, 1-(4-fluorophenyl)-5-(1-isobutyl-4-((2-(2,2,2-trifluoroethyl)-2H-1,2,3-triazol-4-yl)sulfonyl)piperazin-2-yl)-6-methyl-1H-indazole]"
13,36,"CO[C@H]1C[C@@H](CN2CCN(S(=O)(=O)c3cnc(C)s3)C[C@@H]2c2cc3cnn(-c4ccc(F)cc4)c3cc2C)C1 (relative stereo) [Example 172, 5-((3-(1-(4-fluorophenyl)-6-methyl-1H-indazol-5-yl)-4-((3-methoxycyclobutyl)methyl)piperazin-1-yl)sulfonyl)-2-methylthiazole]"
14,110,"CC[C@@H](C)N1CCN(S(=O)(=O)c2cnn(C)n2)C[C@@H]1c1cc2cnn(-c3ccc(F)cc3)c2cc1C (stereo in doubt) [Example 122, 5-(1-(sec-butyl)-4-((2-methyl-2H-1,2,3-triazol-4-yl)sulfonyl)piperazin-2-yl)-1-(4-fluorophenyl)-6-methyl-1H-indazole]"
15,23,"CCn1ncc(S(=O)(=O)N2CCN(CC(C)C)C(c3cc4cnn(-c5ccc(F)cc5)c4cc3C)C2)n1 (single isomer, unassigned) [Example 48, 5-(4-((2-ethyl-2H-1,2,3-triazol-4-yl)sulfonyl)-1-isobutylpiperazin-2-yl)-1-(4-fluorophenyl)-6-methyl-1H-indazole]"
16,380,"Cc1cc2c(cnn2-c2ccc(F)cc2)cc1C1CN(S(=O)(=O)c2cnn(C)n2)CC(=O)N1Cc1ccccc1 (centres unmarked) [Example 153, 1-benzyl-6-(1-(4-fluorophenyl)-6-methyl-1H-indazol-5-yl)-4-((2-methyl-2H-1,2,3-triazol-4-yl)sulfonyl)piperazin-2-one]"
17,36,"Cc1cc2c(cnn2-c2ccc(F)cc2)cc1C1CN(S(=O)(=O)c2nn(C)nc2C)CCN1CC(C)C (single isomer, unassigned) [Example 93, 5-(4-((2,5-dimethyl-2H-1,2,3-triazol-4-yl)sulfonyl)-1-isobutylpiperazin-2-yl)-1-(4-fluorophenyl)-6-methyl-1H-indazole]"
18,57,"Cc1cc2c(cnn2-c2ccc(F)cc2)cc1C1CN(S(C)(=O)=O)CCN1CC(C)C (centres unmarked) [Example 39, 1-(4-fluorophenyl)-5-(1-isobutyl-4-(methylsulfonyl)piperazin-2-yl)-6-methyl-1H-indazole]"
19,35,"Cc1cc2c(cnn2-c2ccc(F)cc2)cc1C1C(C)N(S(=O)(=O)c2cnn(C)n2)CCN1CC(C)C (centres unmarked) [Example 88, 1-(4-fluorophenyl)-5-(1-isobutyl-3-methyl-4-((2-methyl-2H-1,2,3-triazol-4-yl)sulfonyl)piperazin-2-yl)-6-methyl-1H-indazole]"
20,33,"Cc1cc2c(cnn2-c2ccc(F)cc2)cc1C1CN(S(=O)(=O)CC(F)(F)F)CCN1CC(C)C (single isomer, unassigned) [Example 106, 1-(4-fluorophenyl)-5-(1-isobutyl-4-((2,2,2-trifluoroethyl)sulfonyl)piperazin-2-yl)-6-methyl-1H-indazole]"
21,46,"Cc1cc2c(cnn2-c2ccc(F)cc2)cc1C1CN(S(=O)(=O)c2cnn(C)n2)CCN1Cc1ccccc1 (single isomer, unassigned) [Example 6, 5-(1-benzyl-4-((2-methyl-2H-1,2,3-triazol-4-yl)sulfonyl)piperazin-2-yl)-1-(4-fluorophenyl)-6-methyl-1H-indazole]"
22,11,"CO[C@H]1C[C@@H](CN2CCN(S(=O)(=O)c3cnn(C)n3)C[C@H]2c2cc3cnn(-c4ccc(F)cc4)c3cc2C)C1 (relative stereo) [Example 155, 1-(4-fluorophenyl)-5-(1-((3-methoxycyclobutyl)methyl)-4-((2-methyl-2H-1,2,3-triazol-4-yl)sulfonyl)piperazin-2-yl)-6-methyl-1H-indazole]"
23,46,"Cc1cc2c(cnn2-c2ccc(F)cc2)cc1C1CN(S(=O)(=O)c2cccnc2C(F)(F)F)CCN1CC(C)C (single isomer, unassigned) [Example 105, 1-(4-fluorophenyl)-5-(1-isobutyl-4-((2-(trifluoromethyl)pyridin-3-yl)sulfonyl)piperazin-2-yl)-6-methyl-1H-indazole]"
24,11,"Cc1cc2c(cnn2-c2ccc(F)cc2)cc1C1CN(S(=O)(=O)c2cnn(C)n2)CCN1CC(C)C(F)(F)F (single isomer, unassigned) [Example 33]"
25,31,"CCCS(=O)(=O)N1CCN(CC(C)C)C(c2cc3cnn(-c4ccc(F)cc4)c3cc2C)C1 (single isomer, unassigned) [Example 49, 1-(4-fluorophenyl)-5-(1-isobutyl-4-(propylsulfonyl)piperazin-2-yl)-6-methyl-1H-indazole]"
26,160,"Cc1ccccc1CN1CCN(S(=O)(=O)c2cnn(C)n2)CC1c1cc2cnn(-c3ccc(F)cc3)c2cc1C (centres unmarked) [Example 71, 1-(4-fluorophenyl)-6-methyl-5-(4-((2-methyl-2H-1,2,3-triazol-4-yl)sulfonyl)-1-(2-methylbenzyl)piperazin-2-yl)-1H-indazole]"
